“Also recorded” adds a separate entry of the source.
Columns and labels:
[1] = Stability on incubation in serum; assay type: in vitro ADME; settings: 3 h and 12 h incubation in serum at 37° C.
Experimental: It was also tested whether compounds are readily broken down in systemic fluid, for which serum was used.

human TRPV2 = target: T1, human TRPV2 (Homo sapiens, UniProt Q9Y5S1); experiment: Ca2+ signal in N2a cells transfected with human TRPV2 (hypotonicity stimulation); assay type: cell-based; settings: hypotonicity (260 mosmol/L) stimulation
T1 construct: expressed in transfected cells; host or cells: N2a cells
T1 sequence (Q9Y5S1 1-764): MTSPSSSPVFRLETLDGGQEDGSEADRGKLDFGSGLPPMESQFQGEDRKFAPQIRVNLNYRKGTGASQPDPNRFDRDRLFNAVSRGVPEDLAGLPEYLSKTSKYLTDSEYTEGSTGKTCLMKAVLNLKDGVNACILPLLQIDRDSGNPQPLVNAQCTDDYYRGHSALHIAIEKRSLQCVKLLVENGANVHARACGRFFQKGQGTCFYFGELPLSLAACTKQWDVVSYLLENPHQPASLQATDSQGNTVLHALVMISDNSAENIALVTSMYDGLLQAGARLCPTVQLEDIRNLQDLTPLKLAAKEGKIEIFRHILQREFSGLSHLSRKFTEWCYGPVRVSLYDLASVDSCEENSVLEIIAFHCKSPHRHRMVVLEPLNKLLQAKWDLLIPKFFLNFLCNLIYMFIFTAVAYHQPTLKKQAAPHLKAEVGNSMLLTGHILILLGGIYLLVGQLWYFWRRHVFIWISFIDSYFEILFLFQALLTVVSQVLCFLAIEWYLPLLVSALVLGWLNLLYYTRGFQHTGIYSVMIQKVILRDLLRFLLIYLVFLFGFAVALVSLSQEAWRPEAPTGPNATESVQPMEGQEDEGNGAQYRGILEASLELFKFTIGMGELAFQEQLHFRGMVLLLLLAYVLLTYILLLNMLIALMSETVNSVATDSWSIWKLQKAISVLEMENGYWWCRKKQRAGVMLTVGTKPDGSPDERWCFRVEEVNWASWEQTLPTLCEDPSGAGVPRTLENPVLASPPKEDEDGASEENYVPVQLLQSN
Experimental: (§1) Compounds were tested for their effect on TRPV1, TRPV2, and TRPV3. Methods were similar to those described in Example 15. Briefly, N2a cells were transfected with human TRPV1, TRPV2, or TRPV3. eGFP-transfection was used as control. For specific stimulation of TRPV1, 5 μM capsaicin was used. For stimulation of TRPV2, hypotonicity (260 mosmol/L) was used, based on previous reports of TRPV2 being osmotically responsive. N2a cells were not responsive to hypotonicity, and neither were control-transfected cells. For TRPV3-expressing cells, camphor (20% of a commercially available stock solution) was used. […] Stimulation and control protocols were applied as for TRPA1-expressing N2a cells as detailed above in Example 15.
(§2) For TRPV1, TRPV2, and TRPV3, Ca2+ transience was not affected by administration of 16-8 or 16-8/18hy.

mice = experiment: UVB-overexposure evoked nocifensive behavior (sunburn model), topical treatment; assay type: in vivo, mouse; settings: 0.5 mM in 40 μL
Experimental: Compounds were tested for their effect on nocifensive behavior (response to pain) following UVB overexposure. Behavioral tests were performed to evaluate the decrease in withdrawal thresholds in response to mechanical von Frey hair or thermal stimuli applied to hind paws. The Von-Frey apparatus (Ugo Basile) applied a mechanical stimulus with a flexible steel wire from underneath the hind paw. The force leading to withdrawal was determined. For the thermal stimuli test, paws were stimulated with heat from underneath applied by an infrared beam (Hargreave's test apparatus; Ugo Basile), and withdrawal latencies were recorded. The withdrawal thresholds were ascertained before and after UV exposure. Mice were exposed to UVB 3-5 days after the last application of tam/oil, using a Bio-Rad Gel Doc 2000 UV transilluminator (302 nm) for 5 min with an exposure of 600 mJ/cm^2. This represents 5-10 times the minimal erythema-inducing dose, in keeping with the rationale of inducing sunburn and studying sunburn-evoked pain.

human TRPV1 = target: T2, human TRPV1 (Homo sapiens, UniProt Q8NER1); experiment: Ca2+ signal in N2a cells transfected with human TRPV1 (capsaicin stimulation); assay type: cell-based; settings: 5 μM capsaicin stimulation
T2 construct: expressed in transfected cells; host or cells: N2a cells
Experimental: as §1, §2

IL-1β secretion by 1° MK = experiment: IL-1β secreted by cultured keratinocytes after UVB exposure (ELISA); assay type: cell-based, mouse; settings: 5 μM GSK205
Experimental: Before UV irradiation, culture media was replaced with PBS. The cells were then irradiated at a dose of 50 mJ/cm^2 with UVB. 24 hours later, supernatants were assayed using IL-1β ELISA (R&D Systems, Minneapolis, Minn.).
We also tested the response of down-stream UVB effector mechanisms to GSK205 treatment in vivo.

TRPV4 = TRPV4 (Homo sapiens, UniProt Q9HBA0); experiment: UVB-evoked Ca++ transient in TRPV4-transfected HEK293T cells; assay type: cell-based; parameters: expressed in transfected cells; host or cells: HEK293T cells; settings: pre-exposure to 20 μM GSK205
Source text: (B) Focusing properties of the ball lens. […] (E) TRPV3 activation experiment. […] (F) TRPV4 selective activator GSK101-related findings.
To assess whether TRPV4 is sufficient for the UVB-evoked Ca++ influx, we introduced high levels of TRPV4 into HEK293 epithelial cells. TRPV4 expression endowed these cells with the ability to generate robust Ca++ signaling in response to UVB (FIG. 2G). Moreover, if they were pre-exposed to GSK205, the response was blocked. Thus, heterologous TRPV4 expression is sufficient for UVB radiation to cause a cellular Ca++ transient.

T2 sequence (Q8NER1 whole entry): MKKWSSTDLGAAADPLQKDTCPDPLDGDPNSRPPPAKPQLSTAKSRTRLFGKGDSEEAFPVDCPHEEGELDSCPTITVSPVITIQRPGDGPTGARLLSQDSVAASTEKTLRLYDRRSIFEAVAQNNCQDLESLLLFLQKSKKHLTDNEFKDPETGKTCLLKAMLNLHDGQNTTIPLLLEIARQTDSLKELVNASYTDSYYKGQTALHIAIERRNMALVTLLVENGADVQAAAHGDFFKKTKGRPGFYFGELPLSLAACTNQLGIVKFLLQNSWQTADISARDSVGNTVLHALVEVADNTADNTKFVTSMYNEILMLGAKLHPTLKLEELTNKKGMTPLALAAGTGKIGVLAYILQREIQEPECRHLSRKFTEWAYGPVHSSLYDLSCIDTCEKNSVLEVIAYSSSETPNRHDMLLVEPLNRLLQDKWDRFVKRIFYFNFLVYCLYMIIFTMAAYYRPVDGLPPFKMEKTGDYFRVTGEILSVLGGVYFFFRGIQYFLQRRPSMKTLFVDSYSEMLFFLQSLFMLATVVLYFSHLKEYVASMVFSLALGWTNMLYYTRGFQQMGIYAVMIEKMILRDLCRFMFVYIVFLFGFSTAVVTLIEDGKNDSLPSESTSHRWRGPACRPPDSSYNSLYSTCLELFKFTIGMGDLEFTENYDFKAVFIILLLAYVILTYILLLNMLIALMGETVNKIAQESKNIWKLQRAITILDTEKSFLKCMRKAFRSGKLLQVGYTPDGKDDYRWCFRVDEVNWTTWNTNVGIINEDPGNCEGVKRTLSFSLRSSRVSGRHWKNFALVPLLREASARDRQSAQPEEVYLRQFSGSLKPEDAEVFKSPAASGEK
Chain of TRPV4 (Q9HBA0 whole entry, species assumed): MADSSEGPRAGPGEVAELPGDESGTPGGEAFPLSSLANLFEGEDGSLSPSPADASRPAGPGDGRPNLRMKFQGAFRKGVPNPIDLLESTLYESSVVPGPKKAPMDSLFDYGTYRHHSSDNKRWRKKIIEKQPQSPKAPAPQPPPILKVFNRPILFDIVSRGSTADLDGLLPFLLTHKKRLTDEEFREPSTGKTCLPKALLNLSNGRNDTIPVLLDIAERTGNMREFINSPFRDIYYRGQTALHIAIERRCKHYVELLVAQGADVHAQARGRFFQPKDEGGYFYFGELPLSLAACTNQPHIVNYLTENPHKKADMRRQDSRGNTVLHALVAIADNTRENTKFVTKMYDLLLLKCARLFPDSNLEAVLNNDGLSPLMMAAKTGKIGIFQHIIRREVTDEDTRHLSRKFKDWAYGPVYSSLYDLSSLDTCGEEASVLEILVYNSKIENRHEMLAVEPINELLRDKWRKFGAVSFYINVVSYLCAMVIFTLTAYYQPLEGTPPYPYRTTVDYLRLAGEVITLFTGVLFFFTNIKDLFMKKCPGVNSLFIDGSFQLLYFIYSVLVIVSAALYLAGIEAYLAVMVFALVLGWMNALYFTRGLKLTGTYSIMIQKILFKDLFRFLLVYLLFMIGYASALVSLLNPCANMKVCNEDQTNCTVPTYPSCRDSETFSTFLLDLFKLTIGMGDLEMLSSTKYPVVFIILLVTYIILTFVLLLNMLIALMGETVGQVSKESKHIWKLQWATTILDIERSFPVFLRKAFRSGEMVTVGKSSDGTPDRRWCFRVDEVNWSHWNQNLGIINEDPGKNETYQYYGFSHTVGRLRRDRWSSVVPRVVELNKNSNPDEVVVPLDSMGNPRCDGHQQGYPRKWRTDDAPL

| Compound | concentration of a fixed spiked amount after incubation in serum [1] | Ca2+ transience, TRPV2 (human TRPV2) | UVB-overexposure evoked nocifensive behavior (response to pain) (mice) | Ca2+ transience, TRPV1 (human TRPV1) | UVB-induced increase in IL-1β secretion by 1° MK (IL-1β secretion by 1° MK) | UVB-evoked Ca++ signal in TRPV4-transfected HEK293T cells (TRPV4) |
| --- | --- | --- | --- | --- | --- | --- |
| CN(CCc1ccc(Nc2nc(-c3ccccc3)cs2)cc1)Cc1ccccc1 [Compound 16-8] | did not change | not affected | especially effective in reducing the response to pain | not affected | – | – |
| CCN(CCc1ccc(Nc2nc(-c3ccccc3)cs2)cc1)Cc1ccccc1 [16-8/18hy] | – | not affected | – | not affected | – | – |
| CN(CCc1ccc(Nc2nc(-c3cccnc3)cs2)cc1)Cc1ccccc1 [GSK205] | – | – | as effective as vehicle | – | completely eliminated; also recorded: prevention of increase in IL-1β secretion | blocked; also recorded: virtually eliminates |
